Results reported in patent US5506354A, “Imidazolylpiperazinyl steroids” (The Upjohn Company, priority 1992, dated 1996).
Structures can show the parent of a compound that is named as a salt.

test system: arachidonic acid; assay: Arachidonic Acid Antagonism Assay (AAAA), LD50 of sodium arachidonate; assay type: in vivo, Charles River male CF-1 mice; conditions: 100 mg/kg; test compound IV
Description: Since these metabolites contribute to the pathological problems associated with stroke, spinal trauma and head injury, compounds which antagonize arachidonic acid are useful in treating stroke, spinal trauma and head injury.
While not necessary to determine arachidonic acid antagonism, the above assay has been modified as follows: Charles River male CF-1 mice weighing 18-22 g are treated IV with the test compound dissolved in 1.0% Tween-80 and 0.1% hydrochloric acid in distilled water, 0.2 ml total volume. Fifteen minutes later sodium arachidonate (90% pure) in physiological (normal) saline is injected into the tail vein. The LD50 is measured using the Spearman-Karber method with a log dose interval of 0.05 (N=6). Compounds which elevate the LD50 outside of the 95% confidence interval of the control LD50 are considered to be "active".

| Compound | % of Control LD50 100 mg/kg [%] |
| --- | --- |
| CCN(CC)c1cc(N2CCN(C(=O)[C@@]3(O)CC[C@H]4[C@@H]5CCC6=CC(=O)CC[C@]6(C)[C@H]5CC[C@@]43C)CC2)nc(N(CC)CC)n1 [Example 57] | 124 |

same assay, conditions: test compound IV 15 min before sodium arachidonate; LD50 outside 95% confidence interval of control

| Compound | arachidonic acid antagonism (activity in words) |
| --- | --- |
| CN1CCN(c2cc(N3CCN(CC(=O)[C@@]4(O)CC[C@H]5[C@@H]6CCC7=CC(=O)CC[C@]7(C)C6=CC[C@@]54C)CC3)nc(N3CCN(C)CC3)n2)CC1 [Example 19, 17α-Hydroxy-21-[4-[2,6-bis(4-methyl-1-piperazinyl)A-pyrimidinyl]-1-piperazinyl]-pregna-4,9(11)-diene-3,20-dione methanesulfonate hydrate] | demonstrate arachidonic acid antagonism |
| COc1cccc(N2CCN(CC(=O)[C@@]3(O)CC[C@H]4[C@@H]5CCC6=CC(=O)CC[C@]6(C)C5=CC[C@@]43C)CC2)n1.CS(=O)(=O)O [Example 22, 17α-hydroxy-21-[4-(6-methoxy-2-pyridinyl)-1-piperazinyl]pregna-4,9(11)-diene-3,20-dione monomethanesulfonate] | demonstrate arachidonic acid antagonism |
| C[C@]12C=CC(=O)C=C1CC[C@@H]1[C@@H]2[C@@H](O)C[C@@]2(C)[C@H]1CC[C@]2(O)C(=O)CN1CCN(c2ccccn2)CC1 [Example 25, 11.uparw.,17α-dihydroxy-21-[4-(2-pyridinyl)-1-piperazinyl]pregna-1,4-diene-3,20-dione dihydrochloride] | demonstrate arachidonic acid antagonism |
| C[C@]12CCC(=O)C=C1CC[C@@H]1[C@@H]2[C@H](O)C[C@@]2(C)[C@H]1CC[C@]2(O)C(=O)CN1CCN(c2ccc(F)cc2)CC1 [Example 29, 21-[4-(4-fluorophenyl)-1-piperazinyl]-11α,17α-dihydroxypregn-4-ene-3,20-dione dihydrochloride] | demonstrate arachidonic acid antagonism |
| C[C@]12CC(=O)[C@H]3[C@@H](CCC4=CC(=O)CC[C@@]43C)[C@@H]1CC[C@@H]2C(=O)CN1CCN(c2ccccn2)CC1.Cl.O [Example 45, 21-[4-(2-pyridinyl)-1-piperazinyl]pregn-4-ene-3,11,20-trione hydrochloride hydrate] | demonstrate arachidonic acid antagonism |
| COc1ccc(CCN(CC(=O)[C@@]2(O)CC[C@H]3[C@@H]4CCC5=CC(=O)CC[C@]5(C)C4=CC[C@@]32C)Cc2ccc(N(C)C)cc2)cc1OC [Example 51, 17α-hydroxy-21-[[2-(3,4-dimethoxyphenyl)ethyl]-4-(dimethylamino)-phenyl]methyl]amino]pregna-4,9(11)-3,20-dione hydrochloride] | demonstrate arachidonic acid antagonism |
| CCN(CC)c1cc(N2CCN(CC(=O)[C@@]3(O)CC[C@H]4[C@@H]5CCC6=CC(=O)CC[C@]6(C)[C@H]5CC[C@@]43C)CC2)nc(N(CC)CC)n1 [Example 53, 21-[4-[2,6-bis(diethylamino)4-pyrimidinyl]-1-piperazinyl]-17α-hydroxypregn-4-ene-3,20-dione] | demonstrate arachidonic acid antagonism |
| C[C@]12CCC(=O)C=C1CC[C@@H]1C2=CC[C@@]2(C)[C@H]1CC[C@]2(O)C(=O)CN1CCN(Cc2ccccn2)CC1 [Example 54, 17α-hydroxy-21-[4-(2-pyridinylmethyl)-1-piperazinyl]-pregna-4,9(11)-diene-3,20-dione (E)-2-butenedioate 1:1 salt] | demonstrate arachidonic acid antagonism |
| CCN(CC)c1cc(N2CCN(C(=O)[C@@]3(O)CC[C@H]4[C@@H]5CCC6=CC(=O)CC[C@]6(C)[C@H]5CC[C@@]43C)CC2)nc(N(CC)CC)n1 [Example 57] | demonstrate arachidonic acid antagonism |
| C=CCNc1nc(NCC=C)nc(N2CCN(CC(=O)[C@@]3(O)CC[C@H]4[C@@H]5CCC6=CC(=O)CC[C@]6(C)C5=CC[C@@]43C)CC2)n1.Cl.Cl.O [Example 60, 17α-hydroxy-21-[4-[4,6-bis(2-propenylamino)-1,3,5-triazin-2-yl]-1-piperazinyl]pregna-4,9(11)-diene-3,20-dione dihydrochloride hydrate] | demonstrate arachidonic acid antagonism |
| C[C@]12C=CC(=O)C=C1CC[C@@H]1C2=CC[C@@]2(C)[C@H]1CC[C@]2(O)C(=O)CN1CCN(c2cc(N3CCCC3)nc(N3CCCC3)n2)CC1.Cl.Cl.O [Example 74, 17α-hydroxy-21-[4-[2,6-di-(1-pyrrolidinyl)-4-pyrimidinyl]-1-piperazinyl] pregna-1,4,9(11)-triene-3,20-dione dihydrochloride hydrate] | demonstrate arachidonic acid antagonism |

test system: angiogenesis; assay: Chick embryo assay of Folkman (inhibition of angiogenesis / tumor growth); assay type: in vivo; conditions: 50 μg/10 μl in the presence of heparin
Description: According to this procedure compounds which are considered to be "active" (i.e. antiangiogenic) give an avascular zone of 4 mm or greater in some embryos when tested at 50 μg/10 μl in the presence of 50 μg/10μ of heparin.

| Compound | inhibition of angiogenesis (activity in words) | % of Embryos with 4 mm or Greater Avascular Zone [%] |
| --- | --- | --- |
| C[C@]12CCC(=O)C=C1CC[C@@H]1C2=CC[C@@]2(C)[C@H]1CC[C@]2(O)C(=O)CN1CCN(C(=O)c2ccco2)CC1 [Example 6B, 17α-Hydroxy-21-[4-(2-furonylcarbonyl)-1-piperazinyl]pregna-4,9(11)-diene-3,20-dione] | demonstrate inhibition of angiogenesis | – |
| CCN(CC)c1cc(N2CCN(CC(=O)[C@@]3(O)CC[C@H]4[C@@H]5CCC6=CC(=O)CC[C@]6(C)C5=CC[C@@]43C)CC2)nc(N(CC)CC)n1 [Example 16, 17α-Hydroxy-21-[4-[2,6-bis(diethylamino)pyrimidinyl]-1-piperazinyl]pregna-4,9(11)-diene-3,20-dione dihydrochloride hydrate] | – | 91 |
| C[C@]12CCC(=O)C=C1CC[C@@H]1[C@@H]2C(=O)C[C@@]2(C)[C@H]1CC[C@]2(O)C(=O)CN1CCN(c2ccccn2)CC1 [Example 20] | demonstrate inhibition of angiogenesis | 72 |
| CC(C)(C)CC(=O)O[C@@H]1C[C@@]2(C)[C@@H](CC[C@]2(O)C(=O)CN2CCN(c3ccccn3)CC2)[C@@H]2CCC3=CC(=O)CC[C@]3(C)[C@H]21 [Example 28, 11α,17α-Dihydroxy-21-[4-(2-pyridinyl)-1-piperazinyl]pregn-4-ene-3,20-dione 11-(3,3-dimethyl-1-butyratedihydrochloride] | – | 73 |
| COc1ccc(N2CCN(CC(=O)[C@@]3(O)CC[C@H]4[C@@H]5CCC6=CC(=O)CC[C@]6(C)[C@H]5[C@H](OC(=O)CC(C)(C)C)C[C@@]43C)CC2)cc1 [Example 32, 11α,17α-dihydroxy-21-[4-(4-methoxyphenyl)-1-piperazinyl]pregn-4-ene-3,20-dione 11-(3,3-dimethyl-1-butyrate) dihydrochloride] | demonstrate inhibition of angiogenesis | – |
| COc1ccc(N2CCN(CC(=O)[C@@]3(O)CC[C@H]4[C@@H]5C[C@H](C)C6=CC(=O)C=C[C@]6(C)[C@H]5[C@@H](O)C[C@@]43C)CC2)cc1 [Example 33, 11β,17α-dihydroxy-21-[4-(4-methoxyphenyl)-1-piperazinyl]-6α-methylpregna-1,4-diene-3,20-dione dihydrochloride] | demonstrate inhibition of angiogenesis | – |
| COc1ccc(CCNCC(=O)[C@@]2(O)CC[C@H]3[C@@H]4C[C@H](C)C5=CC(=O)C=C[C@]5(C)[C@H]4[C@@H](O)C[C@@]32C)cc1OC [Example 34, 11β,17α-dihydroxy-21-[[2-(3,4-dimethoxy-phenyl)ethyl]amino]-6α-methylpregna-1,4-diene-3,20-dione hydrochloride] | demonstrate inhibition of angiogenesis | – |
| C[C@]12C[C@@H](O)[C@H]3[C@@H](CCC4=CC(=O)CC[C@@]43C)[C@@H]1CC[C@@H]2C(=O)CN1CCN(c2ccccn2)CC1.Cl.Cl [Example 36, 11α-hydroxy-21-[4-(2-pyridinyl)-1-piperazinyl]-pregn-4-ene-3,20-dione dihydrochloride] | demonstrate inhibition of angiogenesis | – |
| C[C@H]1C[C@H]2[C@@H]3CC[C@H]4CC(=O)CC[C@]4(C)C3=CC[C@]2(C)[C@@]1(O)C(=O)CN1CCN(c2ccccn2)CC1.Cl.Cl.O [Example 44, 17α-hydroxy-16β-methyl-21-[4-(2-pyridinyl)-1-piperazinyl]-5α-pregn-9(11)-ene-3,20-dione dihydrochloride hydrate] | – | 75 |
| CCN(CC)c1cc(N2CCN(CC(=O)[C@@]3(O)CC[C@H]4[C@@H]5C[C@H](C)C6=CC(=O)C=C[C@]6(C)C5=CC[C@@]43C)CC2)nc(N(CC)CC)n1 [Example 63, 21-[4-[2,6-bis(diethylamino)-4-pyrimidinyl]-1-piperaz-inyl]-17α-hydroxy-6α-methylpregna-1,4,9(11)-triene-3,20-dione (E)-2-butenedioate (1:1) salt] | demonstrate inhibition of angiogenesis | – |
| C[C@]12CCC(=O)C=C1CC[C@@H]1C2=CC[C@@]2(C)[C@H]1CC[C@]2(O)C(=O)CN1CCN(c2cc(N3CCCC3)nc(N3CCCC3)n2)CC1 [Example 64, 17α-hydroxy-21-[4-[2,6-bis(1-pyrrolidinyl)-4-pyrimidinyl]-1-piperazinyl]-pregna-4,9(11)-diene-3,20-dione (E)-2-butenedioate (1:1) salt] | demonstrate inhibition of angiogenesis | – |
| C[C@]12CC[C@@H](O)C[C@H]1CC[C@@H]1[C@@H]2C(=O)C[C@@]2(C)[C@H]1CC[C@]2(O)C(=O)CN1CCN(c2ccccn2)CC1 [Example 99, 3α,17α-dihydroxy-21-[4-(2-pyridinyl)-1-piperazinyl]-5β-pregnane-11,20-dione dihydrochloride hydrate] | demonstrate inhibition of angiogenesis | – |
